Experimental data: ChEMBL document CHEMBL5050828, “Inhibitors of DUX4 induction for regulation of muscle function” (2021)
Activity calls are given as the source filed them.

Assays:
Myoblast [1] = assay: Effect on myotube gene expression in facioscapulohumeral muscular dystrophy (FSHD) primary pateint derived myoblasts at 0.03 to 3 microM assessed as decrease in MYH3 expression; format: functional, cell-based; conditions: Homo sapiens, dose 0.03-3 µM
Myoblast [2] = assay: Downregulation of DUX4 expression in facioscapulohumeral muscular dystrophy (FSHD) affected human embryonic stem cell (hESC)-derived skeletal myoblasts at 0.01 to 3 uM and measured by immunocytochemistry analysis relative to control; format: functional, cell-based; conditions: dose 0.01-3 µM
Myoblast [3] = assay: Effect on DUX4-target gene expression in facioscapulohumeral muscular dystrophy (FSHD) primary pateint derived myoblasts at 0.03 to 3 microM assessed as decrease in PRAMEF2 expression; format: functional, cell-based; conditions: Homo sapiens, dose 0.03-3 µM
[4] = target: Proto-oncogene tyrosine-protein kinase Src (Homo sapiens) (UniProt P12931); assay: Inhibition of SRC in facioscapulohumeral muscular dystrophy (FSHD) primary pateint derived myoblasts at 0.01 to 1 uM and measured by immunofluorescence method; format: cell-based; conditions: Myoblast, dose 0.01-1 µM
Myoblast [5] = assay: Effect on nuclei count in facioscapulohumeral muscular dystrophy (FSHD) affected human embryonic stem cell (hESC)-derived skeletal myoblasts at 100 nM and measured by immunocytochemistry analysis relative to control; format: functional, cell-based
Myoblast [6] = assay: Effect on DUX4-target gene expression in facioscapulohumeral muscular dystrophy (FSHD) primary pateint derived myoblasts at 0.03 to 3 microM assessed as decrease in MBD3L2 expression; format: functional, cell-based; conditions: Homo sapiens, dose 0.03-3 µM
Myoblast [7] = assay: Effect on myotube gene expression in facioscapulohumeral muscular dystrophy (FSHD) primary pateint derived myoblasts at 0.03 to 3 microM assessed as decrease in DMD expression; format: functional, cell-based; conditions: Homo sapiens, dose 0.03-3 µM
Myoblast [8] = assay: Effect on myotube gene expression in facioscapulohumeral muscular dystrophy (FSHD) primary pateint derived myoblasts at 0.03 to 3 microM assessed as decrease in MYH8 expression; format: functional, cell-based; conditions: Homo sapiens, dose 0.03-3 µM
Myoblast [9] = assay: Effect on DUX4-target gene expression in facioscapulohumeral muscular dystrophy (FSHD) primary pateint derived myoblasts at 0.03 to 3 microM assessed as decrease in TRIM43 expression; format: functional, cell-based; conditions: Homo sapiens, dose 0.03-3 µM
[10] = Half-life in male CD-1 mouse at 50 mg/kg, IM measured by LC-MS/MS analysis; format: ADME, organism-based; conditions: in vivo
Myoblast [11] = assay: Effect on SRC expression in facioscapulohumeral muscular dystrophy (FSHD) primary pateint derived myoblasts at 0.01 to 1 uM and measured by RT-PCR analysis; format: functional, cell-based; conditions: Homo sapiens, dose 0.01-1 µM
Myoblast [12] = assay: Effect on DUX4-target gene expression in facioscapulohumeral muscular dystrophy (FSHD) primary pateint derived myoblasts at 0.03 to 3 microM assessed as decrease in LEUTX expression; format: functional, cell-based; conditions: Homo sapiens, dose 0.03-3 µM
Myoblast [13] = assay: Effect on DNA methylation levels at D4Z4 regions of chromosome 4 in myotubes of facioscapulohumeral muscular dystrophy (FSHD) affected human embryonic stem cell (hESC)-derived skeletal myoblasts at 0.01 to 1 uM; format: functional, cell-based; conditions: dose 0.01-1 µM
Myoblast [14] = assay: Effect on DUX4-target gene expression in facioscapulohumeral muscular dystrophy (FSHD) primary pateint derived myoblasts at 0.03 to 3 microM assessed as decrease in KHDC1L expression; format: functional, cell-based; conditions: Homo sapiens, dose 0.03-3 µM
Myoblast [15] = assay: Effect on DUX4-target gene expression in facioscapulohumeral muscular dystrophy (FSHD) primary pateint derived myoblasts at 0.03 to 3 microM assessed as decrease in TRIM49 expression; format: functional, cell-based; conditions: Homo sapiens, dose 0.03-3 µM
[16] = Brain concentration in male CD-1 mouse at 10 mg/kg, IM administered as single dose and measured by LC-MS/MS analysis; format: ADME, organism-based; conditions: in vivo, BLD = below limit of detection
Myoblast [17] = assay: Effect on DUX4-target gene expression in facioscapulohumeral muscular dystrophy (FSHD) primary pateint derived myoblasts at 0.03 to 3 microM assessed as decrease in ZSCAN4 expression; format: functional, cell-based; conditions: Homo sapiens, dose 0.03-3 µM
Myoblast [18] = assay: Effect on DUX4-target gene expression in facioscapulohumeral muscular dystrophy (FSHD) primary pateint derived myoblasts at 0.03 to 3 microM assessed as decrease in SPRYD5 expression; format: functional, cell-based; conditions: Homo sapiens, dose 0.03-3 µM
Myoblast [19] = assay: Effect on DUX4-target gene expression in facioscapulohumeral muscular dystrophy (FSHD) primary pateint derived myoblasts at 0.03 to 3 microM assessed as decrease in CCNA1 expression; format: functional, cell-based; conditions: Homo sapiens, dose 0.03-3 µM
Myoblast [20] = assay: Effect on myosin heavy chain expression in facioscapulohumeral muscular dystrophy (FSHD) affected human embryonic stem cell (hESC)-derived skeletal myoblasts at 0.01 to 3 uM and measured by immunocytochemistry analysis relative to control; format: functional, cell-based; conditions: dose 0.01-3 µM
[21] = Half-life in male CD-1 mouse at 10 mg/kg, IM measured by LC-MS/MS analysis; format: ADME, organism-based; conditions: in vivo
Myoblast [22] = assay: Effect on DUX4-target gene expression in facioscapulohumeral muscular dystrophy (FSHD) primary pateint derived myoblasts at 0.03 to 3 microM assessed as decrease in ZNF296 expression; format: functional, cell-based; conditions: Homo sapiens, dose 0.03-3 µM
Myoblast [23] = assay: Effect on DUX4-target gene expression in facioscapulohumeral muscular dystrophy (FSHD) primary pateint derived myoblasts at 0.03 to 3 microM assessed as decrease in PRAMEF6 expression; format: functional, cell-based; conditions: Homo sapiens, dose 0.03-3 µM
Myoblast [24] = assay: Rescue of apoptosis in facioscapulohumeral muscular dystrophy (FSHD) primary pateint derived myoblasts at 0.01 to 3 uM assessed as decrease in caspase 3/7 activation and measured by live cell imaging method; format: functional, cell-based; conditions: Homo sapiens, dose 0.01-3 µM
[25] = Downregulation of DUX4 expression in facioscapulohumeral muscular dystrophy (FSHD) affected human embryonic stem cell (hESC)-derived skeletal myoblasts and measured by immunocytochemistry analysis; format: functional, cell-based; conditions: Myoblast
[26] = Downregulation of DUX4 expression in facioscapulohumeral muscular dystrophy (FSHD) primary pateint derived myoblasts and measured by immunocytochemistry analysis; format: functional, cell-based; conditions: Homo sapiens, Myoblast
[27] = target: DNA-dependent protein kinase catalytic subunit (Homo sapiens) (UniProt P78527); assay: Inhibition of PRKDC in facioscapulohumeral muscular dystrophy (FSHD) primary pateint derived myoblasts at 0.01 to 1 uM and measured by immunofluorescence method; format: cell-based; conditions: Myoblast, dose 0.01-1 µM
Myoblast [28] = assay: Effect on DNA methylation levels at 4qA regions of chromosome 4 in myotubes of facioscapulohumeral muscular dystrophy (FSHD) affected human embryonic stem cell (hESC)-derived skeletal myoblasts at 0.01 to 1 uM; format: functional, cell-based; conditions: dose 0.01-1 µM
Myoblast [29] = assay: Effect on myotube gene expression in facioscapulohumeral muscular dystrophy (FSHD) primary pateint derived myoblasts at 0.03 to 3 microM assessed as decrease in MYOG expression; format: functional, cell-based; conditions: Homo sapiens, dose 0.03-3 µM
Myoblast [30] = assay: Effect on PRKDC expression in facioscapulohumeral muscular dystrophy (FSHD) primary pateint derived myoblasts at 0.01 to 1 uM and measured by RT-PCR analysis; format: functional, cell-based; conditions: Homo sapiens, dose 0.01-1 µM
Myoblast [31] = assay: Rescue of cell death in facioscapulohumeral muscular dystrophy (FSHD) primary pateint derived myoblasts at 0.01 to 3 uM and measured by live cell imaging method; format: functional, cell-based; conditions: Homo sapiens, dose 0.01-3 µM
Myoblast [32] = assay: Effect on myosin heavy chain expression in facioscapulohumeral muscular dystrophy (FSHD) affected human embryonic stem cell (hESC)-derived skeletal myoblasts at 100 nM and measured by immunocytochemistry analysis relative to control; format: functional, cell-based
Myoblast [33] = assay: Effect on myotube gene expression in facioscapulohumeral muscular dystrophy (FSHD) primary pateint derived myoblasts at 0.03 to 3 microM assessed as decrease in CKM expression; format: functional, cell-based; conditions: Homo sapiens, dose 0.03-3 µM
Myoblast [34] = assay: Effect on myotube gene expression in facioscapulohumeral muscular dystrophy (FSHD) primary pateint derived myoblasts at 0.03 to 3 microM assessed as decrease in DES expression; format: functional, cell-based; conditions: Homo sapiens, dose 0.03-3 µM
Myoblast [35] = assay: Downregulation of DUX4 expression in facioscapulohumeral muscular dystrophy (FSHD) affected human embryonic stem cell (hESC)-derived skeletal myoblasts at 100 nM and measured by immunocytochemistry analysis relative to control; format: functional, cell-based

Sequence of DNA-dependent protein kinase catalytic subunit (Homo sapiens) (P78527 whole entry): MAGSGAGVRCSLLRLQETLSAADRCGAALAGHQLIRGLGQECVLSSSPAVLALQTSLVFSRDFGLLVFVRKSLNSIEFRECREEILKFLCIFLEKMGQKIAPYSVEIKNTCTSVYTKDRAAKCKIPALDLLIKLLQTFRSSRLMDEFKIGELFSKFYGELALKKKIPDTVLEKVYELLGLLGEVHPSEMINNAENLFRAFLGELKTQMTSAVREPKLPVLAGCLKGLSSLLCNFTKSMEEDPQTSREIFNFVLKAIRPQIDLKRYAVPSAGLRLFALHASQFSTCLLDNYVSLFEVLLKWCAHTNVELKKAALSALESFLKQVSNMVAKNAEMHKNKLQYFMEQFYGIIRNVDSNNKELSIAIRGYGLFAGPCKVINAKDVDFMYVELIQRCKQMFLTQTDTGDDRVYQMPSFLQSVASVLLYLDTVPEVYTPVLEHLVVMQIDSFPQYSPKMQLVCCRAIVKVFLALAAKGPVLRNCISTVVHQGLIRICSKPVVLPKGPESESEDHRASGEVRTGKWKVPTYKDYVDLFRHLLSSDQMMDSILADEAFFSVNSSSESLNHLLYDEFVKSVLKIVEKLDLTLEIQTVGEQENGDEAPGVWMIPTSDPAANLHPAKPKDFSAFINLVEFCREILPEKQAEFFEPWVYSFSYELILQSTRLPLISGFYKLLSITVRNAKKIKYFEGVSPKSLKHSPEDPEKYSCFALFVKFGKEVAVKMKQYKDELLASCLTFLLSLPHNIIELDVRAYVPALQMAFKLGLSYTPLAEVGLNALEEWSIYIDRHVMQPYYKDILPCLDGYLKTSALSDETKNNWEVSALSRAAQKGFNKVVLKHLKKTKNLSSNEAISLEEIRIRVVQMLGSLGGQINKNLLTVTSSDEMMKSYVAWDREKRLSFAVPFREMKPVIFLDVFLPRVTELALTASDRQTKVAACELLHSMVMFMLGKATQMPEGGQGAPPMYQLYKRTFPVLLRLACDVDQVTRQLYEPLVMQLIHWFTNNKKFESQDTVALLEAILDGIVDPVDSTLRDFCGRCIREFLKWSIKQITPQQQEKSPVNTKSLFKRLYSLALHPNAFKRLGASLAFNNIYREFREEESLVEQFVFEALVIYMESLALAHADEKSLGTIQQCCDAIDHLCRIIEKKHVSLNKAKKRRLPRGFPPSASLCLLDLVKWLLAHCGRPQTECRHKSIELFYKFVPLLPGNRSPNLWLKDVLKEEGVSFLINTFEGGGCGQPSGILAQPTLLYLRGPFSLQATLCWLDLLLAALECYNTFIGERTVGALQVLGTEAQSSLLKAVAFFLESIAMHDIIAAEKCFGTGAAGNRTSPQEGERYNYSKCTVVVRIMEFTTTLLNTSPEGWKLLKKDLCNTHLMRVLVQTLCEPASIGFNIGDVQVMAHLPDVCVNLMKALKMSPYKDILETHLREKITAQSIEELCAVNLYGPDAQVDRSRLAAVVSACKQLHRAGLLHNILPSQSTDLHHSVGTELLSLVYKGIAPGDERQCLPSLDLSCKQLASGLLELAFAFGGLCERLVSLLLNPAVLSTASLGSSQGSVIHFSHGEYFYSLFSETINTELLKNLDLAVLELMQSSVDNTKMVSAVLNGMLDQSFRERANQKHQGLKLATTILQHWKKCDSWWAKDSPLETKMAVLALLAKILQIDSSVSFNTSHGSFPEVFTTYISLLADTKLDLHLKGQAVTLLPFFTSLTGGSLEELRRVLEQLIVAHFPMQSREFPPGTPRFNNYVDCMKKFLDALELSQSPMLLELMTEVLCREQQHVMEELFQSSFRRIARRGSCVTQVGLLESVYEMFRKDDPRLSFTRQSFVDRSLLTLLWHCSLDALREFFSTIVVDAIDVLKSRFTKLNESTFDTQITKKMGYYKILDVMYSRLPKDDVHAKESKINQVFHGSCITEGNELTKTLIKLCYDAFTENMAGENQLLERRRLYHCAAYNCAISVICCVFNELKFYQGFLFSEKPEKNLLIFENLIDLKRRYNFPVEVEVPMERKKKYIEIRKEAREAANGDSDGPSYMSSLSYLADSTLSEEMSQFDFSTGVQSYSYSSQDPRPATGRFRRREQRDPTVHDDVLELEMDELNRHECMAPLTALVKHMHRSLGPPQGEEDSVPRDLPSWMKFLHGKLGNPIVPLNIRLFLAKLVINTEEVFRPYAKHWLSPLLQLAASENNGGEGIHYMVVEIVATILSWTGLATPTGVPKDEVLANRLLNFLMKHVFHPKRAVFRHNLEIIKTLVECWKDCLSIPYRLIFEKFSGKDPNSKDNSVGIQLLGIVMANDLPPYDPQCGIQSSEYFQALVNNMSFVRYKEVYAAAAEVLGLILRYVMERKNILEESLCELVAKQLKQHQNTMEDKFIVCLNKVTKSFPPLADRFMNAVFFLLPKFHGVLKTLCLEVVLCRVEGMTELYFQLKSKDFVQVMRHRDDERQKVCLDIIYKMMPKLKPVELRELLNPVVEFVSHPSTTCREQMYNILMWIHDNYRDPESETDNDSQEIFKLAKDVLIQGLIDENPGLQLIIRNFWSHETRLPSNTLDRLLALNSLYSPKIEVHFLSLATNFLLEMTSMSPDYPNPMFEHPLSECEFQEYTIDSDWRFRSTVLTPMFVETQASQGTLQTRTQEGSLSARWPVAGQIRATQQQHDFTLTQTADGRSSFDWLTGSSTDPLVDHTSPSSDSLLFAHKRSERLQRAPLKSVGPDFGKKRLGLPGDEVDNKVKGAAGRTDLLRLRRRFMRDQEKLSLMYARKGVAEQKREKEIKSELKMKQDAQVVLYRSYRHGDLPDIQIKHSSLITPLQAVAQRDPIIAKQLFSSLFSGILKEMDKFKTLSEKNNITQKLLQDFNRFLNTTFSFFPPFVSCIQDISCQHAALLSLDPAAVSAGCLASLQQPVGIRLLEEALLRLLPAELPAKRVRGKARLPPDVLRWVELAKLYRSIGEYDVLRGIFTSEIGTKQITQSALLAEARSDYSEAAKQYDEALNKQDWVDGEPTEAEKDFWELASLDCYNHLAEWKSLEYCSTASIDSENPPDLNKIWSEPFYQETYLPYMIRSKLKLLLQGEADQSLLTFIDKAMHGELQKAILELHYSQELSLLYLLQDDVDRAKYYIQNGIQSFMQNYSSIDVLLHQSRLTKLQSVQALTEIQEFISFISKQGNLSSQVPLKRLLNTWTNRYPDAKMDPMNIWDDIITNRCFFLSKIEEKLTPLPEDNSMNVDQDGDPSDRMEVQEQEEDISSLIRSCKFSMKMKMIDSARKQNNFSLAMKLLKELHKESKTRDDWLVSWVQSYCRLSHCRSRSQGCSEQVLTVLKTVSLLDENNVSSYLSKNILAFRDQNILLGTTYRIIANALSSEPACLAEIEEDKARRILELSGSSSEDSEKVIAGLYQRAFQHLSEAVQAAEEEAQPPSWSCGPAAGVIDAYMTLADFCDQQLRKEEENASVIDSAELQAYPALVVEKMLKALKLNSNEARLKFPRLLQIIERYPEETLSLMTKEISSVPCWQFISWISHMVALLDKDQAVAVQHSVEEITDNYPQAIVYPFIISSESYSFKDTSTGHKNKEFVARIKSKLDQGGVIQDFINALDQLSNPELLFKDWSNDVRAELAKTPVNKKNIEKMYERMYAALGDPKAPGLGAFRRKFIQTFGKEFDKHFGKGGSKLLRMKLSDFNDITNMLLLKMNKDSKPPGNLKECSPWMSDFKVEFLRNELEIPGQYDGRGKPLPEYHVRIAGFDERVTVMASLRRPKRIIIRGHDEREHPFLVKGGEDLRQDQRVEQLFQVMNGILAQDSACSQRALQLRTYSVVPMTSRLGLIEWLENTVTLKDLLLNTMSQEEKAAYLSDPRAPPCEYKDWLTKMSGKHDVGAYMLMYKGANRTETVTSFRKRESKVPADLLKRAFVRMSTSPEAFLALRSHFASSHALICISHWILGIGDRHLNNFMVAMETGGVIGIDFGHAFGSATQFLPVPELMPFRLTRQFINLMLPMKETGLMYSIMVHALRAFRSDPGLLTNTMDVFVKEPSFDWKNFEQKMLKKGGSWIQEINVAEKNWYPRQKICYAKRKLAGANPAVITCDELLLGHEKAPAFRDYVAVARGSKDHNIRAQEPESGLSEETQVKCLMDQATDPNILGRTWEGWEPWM
Sequence of Proto-oncogene tyrosine-protein kinase Src (Homo sapiens) (P12931 2-536 limits assumed): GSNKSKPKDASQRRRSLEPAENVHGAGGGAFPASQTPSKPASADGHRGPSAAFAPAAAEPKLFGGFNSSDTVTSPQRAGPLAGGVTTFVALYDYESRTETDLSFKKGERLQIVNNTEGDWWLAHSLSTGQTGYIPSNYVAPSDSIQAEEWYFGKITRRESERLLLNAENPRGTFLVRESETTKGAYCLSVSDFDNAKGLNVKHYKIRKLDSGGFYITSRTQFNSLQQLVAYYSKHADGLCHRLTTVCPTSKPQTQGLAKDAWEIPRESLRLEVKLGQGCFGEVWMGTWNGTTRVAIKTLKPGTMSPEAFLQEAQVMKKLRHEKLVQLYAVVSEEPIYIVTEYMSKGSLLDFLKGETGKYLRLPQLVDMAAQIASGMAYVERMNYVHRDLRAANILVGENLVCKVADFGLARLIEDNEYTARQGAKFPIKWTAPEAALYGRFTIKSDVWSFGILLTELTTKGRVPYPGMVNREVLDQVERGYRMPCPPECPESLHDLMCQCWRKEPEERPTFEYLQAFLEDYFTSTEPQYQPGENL

CNC(=O)c1cc(Oc2ccc(NC(=O)Nc3cc(C(C)(C)C)nn3-c3ccc4ncccc4c3)c(F)c2)ccn1 [REBASTINIB]
8.1 h: half-life [10]
Bld: Drug uptake [16]
active: Activity (Myoblast [2]) | Activity (Myoblast [3]) | inhibition [4] | Activity (Myoblast [6]) | Activity (Myoblast [9]) | Activity (Myoblast [12]) | Activity (Myoblast [14]) | Activity (Myoblast [15]) | Activity (Myoblast [17]) | Activity (Myoblast [18]) | Activity (Myoblast [19]) | Activity (Myoblast [22]) | Activity (Myoblast [23]) | Activity (Myoblast [24]) | inhibition [27] | Activity (Myoblast [31]) | Activity (Myoblast [35])
37.9 µM: EC50 [25]
5.59 h: half-life [21]
0.1 µM: IC50 [26]
inactive: Activity (Myoblast [1]) | Activity (Myoblast [5]) | Activity (Myoblast [7]) | Activity (Myoblast [8]) | Activity (Myoblast [11]) | Activity (Myoblast [13]) | Activity (Myoblast [20]) | Activity (Myoblast [28]) | Activity (Myoblast [29]) | Activity (Myoblast [30]) | Activity (Myoblast [32]) | Activity (Myoblast [33]) | Activity (Myoblast [34])
